Measured values: paper PMC6273431, “The Structure–Antimicrobial Activity Relationships of a Promising Class of the Compounds Containing the N-Arylpiperazine Scaffold” (Molecules, 2016)
Like-named read-outs stand apart in the source and are kept apart here.

Columns and labels:
[1] = test system: Mycobacterium avium subsp. paratuberculosis CIT03; assay: antimycobacterial MIC, MB broth, alamarBlue; type: cell-based; conditions: 264 h, read-out: MIC MAP
Method: The Mycobacterium avium subsp. paratuberculosis CIT03 strain was grown in the Middlebrook (MB) broth, supplemented with the Oleic-Albumin-Dextrose-Catalase Supplement (OADC, Becton Dickinson, Oxford, UK) and the mycobactin J (2 μg/mL). The commercially available siderophore mycobactin J reduced the incubation period of M. avium subsp. paratuberculosis in a complex medium when compared to the medium containing the mycobactin P as a growth factor.
The identification of the isolate was performed using biochemical and molecular protocols. At a log phase growth, a culture sample (10 mL) was centrifuged at 15,000 rpm/20 min using a bench top centrifuge (Model CR 4-12, Jouan Inc., London, UK). Following removal of the supernatant, the pellet was washed in fresh Middlebrook 7H9GC broth and re-suspended in fresh supplemented MB broth (10 mL). The turbidity was adjusted to match the McFarland standard No. 1 containing approximately 3.0 × 10^8 Colony Forming Units (CFU) with the MB broth. Further 1:20 dilution of the culture was performed in the MB broth. The susceptibility of given mycobacterial species was investigated in a 96-well plate format. In those experiments, sterile deionised water (300 μL) was added to all outer-perimeter wells of the plates to minimize an evaporation of the medium in the test wells during the incubation process. Each evaluated compound (100 μL) was incubated with the mycobacterial species (100 μL). The dilutions of a particular compound were prepared in triplicate. For all inspected derivatives, final concentrations ranged from 1000 μg/mL to 60 μg/mL. All compounds were prepared in dimethyl sulfoxide (DMSO; Sigma-Aldrich, Irvine, UK) and subsequent dilutions were made in the supplemented MB broth. The plates were sealed with a parafilm and incubated at 37 °C for 11 days. Following the incubation, a 10% addition of a water‑soluble dye, the alamarBlue reagent (AbD Serotec, Kidlington, UK), was mixed into each well. Absorbance readings at 570 nm and 600 nm were taken, initially for background subtraction and after 24 h re-incubation. The subtraction is necessary for strongly coloured compounds, where the colour may interfere with the interpretation of any colour change. For non-interfering compounds, a blue colour in a well was interpreted as an absence of a growth and a pink colour was scored as a growth.
The minimum inhibitory concentration (MIC) was defined as the lowest concentration of the compound at which no visible bacterial growth was observed. In other words, the MIC was the lowest concentration that prevented a visual colour change from blue to pink. The MIC value has been routinely and widely used in bacterial assays and it has been a standard detection limit according to the Clinical and Laboratory Standards Institute. The clinically used antimycobacterial drugs INH and RIF were applied as the standards.

M. smegmatis ATCC 700084 = assay: antimycobacterial MIC, broth dilution micromethod; type: cell-based; conditions: Mycolicibacterium smegmatis, ATCC700084, 72 h, 3 days at 37 °C
[2] = design: method as in PMID 16209439, PMID 16209439; conditions: potentiometric titration; cited from earlier work
[3] = test system: Escherichia coli ATCC 25922; assay: antibacterial MIC, microtitration broth method; type: cell-based; conditions: 37 °C
Method: (§1) Prior to the testing, each strain was transferred into a nutrient agar (Oxoid Limited, Basingstoke, UK), which was enriched with 5% defibrinated bovine blood.
(§2) The MICs were determined by the microtitration broth method in the cation-adjusted Mueller-Hinton broth (Becton Dickinson, Oxford, UK) according to an international interdisciplinary Clinical Laboratory Standard Institute guidelines.
(§3) The checkerboard was inoculated by the bacterial inocula, which were prepared in a phosphate buffered saline solution with the pH = 7.2–7.3 to simulate physiological pH. The final concentration of each inoculum in the final volume of 100 μL in the wells was approximately 7.5 × 10^6 CFU/mL. Drug-free controls, sterility controls and the controls consisted of the broth with DMSO were included. The determination of the results was performed visually after 24 h of static incubation in the darkness at 37 °C in an aerobic atmosphere.
(§4) To ensure reproducibility, each antibacterial MIC assay was performed triplicate on separate occasions.

[4] = test system: Staphylococcus aureus ATCC 29213; assay: antibacterial MIC, microtitration broth method; type: cell-based; conditions: 37 °C
Method: as §1, §2, §3, §4

[5] = test system: Enterococcus faecalis ATCC 29212; assay: antibacterial MIC, microtitration broth method; type: cell-based; conditions: 37 °C
Method: as §1, §2, §3, §4

[6] = test system: methicillin-resistant Staphylococcus aureus 63718; assay: antibacterial MIC, microtitration broth method; type: cell-based; conditions: MRSA, 37 °C
Method: as §1, §2, §3, §4

M. marinum CAMP 5644 = assay: antimycobacterial MIC, broth dilution micromethod; type: cell-based; conditions: Mycobacterium marinum, CAMP5644, 504 h, 21 days at 28 °C
[7] = test system: Candida albicans CCM 8261; assay: candidacidal MIC, microdilution method; type: cell-based; conditions: 48 h, 37 °C
Method: (§5) In order to provide a look into the potential usefulness of the derivatives 5a–l as the candidates for a development of anti-yeast (candidacidal) agents, they were in vitro tested against Candida albicans CCM 8261 (CA 8261), C. krusei CCM 8271 (CK 8271) and C. parapsilosis CCM 8260 (CP 8260). The yeasts were obtained from the Czech Collection of Microorganisms (Masaryk University, Faculty of Science, Brno, Czech Republic). They were grown and kept on Sabouraud agar (Oxoid Limited, Basingstoke, UK).
(§6) For the screening, the microdilution method according to the Antimicrobial Susceptibility Testing Protocols was applied. The inoculum was prepared from the cultures grown on Sabouraud agar. With the sterile solution of NaCl, the inoculum was prepared to the 0.5 McFarland units using the Densi-La-Meter densitometer (LIAP, Riga, Latvia) and diluted a thousand‑fold with the Roswell Park Memorial Institute (RPMI) 1640 medium (Sigma-Aldrich, Darmstadt, Germany). Prepared suspension was used for an inoculation of microtitre plates. Final concentration in wells ranged from 5.0 × 10^2 CFU/mL to 2.5 × 10^3 CFU/mL. […] For the determination of the MICs, the stock solutions of all the tested compounds were diluted in the microtitre checkerboard to the final concentration varying from 128 μg/mL to 0.125 μg/mL. Drug-free control, sterility control and the control consisted of a medium and DMSO alone were included. Inoculated microtitre plates were incubated for 48 h in the darkness at 37 °C in an aerobic atmosphere. The results were estimated against static light.
(§7) The MIC was defined as the lowest concentration of the tested compound at which no visible growth was observed. To ensure reproducibility of the results, each candidacidal MIC assay was performed triplicate on separate occasions. It was important to note that all the MICs from the in vitro antimicrobial screening were expressed in μg/mL units and were available in Tables S3 and S4 (Supplementary Materials).

[8] = test system: Candida parapsilosis CCM 8260; assay: candidacidal MIC, microdilution method; type: cell-based; conditions: 48 h, 37 °C
Method: as §5, §6, §7

Candida krusei CCM 8271 = assay: candidacidal MIC, microdilution method; type: cell-based; conditions: 48 h, 37 °C
Method: as §5, §6, §7

M. kansasii DSM 44162 = assay: antimycobacterial MIC, broth dilution micromethod; type: cell-based; conditions: Mycobacterium kansasii, DSM44162, 168 h, 7 days at 37 °C
[9] = design: method as in PMID 16209439, PMID 16209439, doi:10.2478/s11696-006-0007-y; conditions: octan-1-ol/phosphate buffer (pH = 7.4); cited from earlier work
[10] = Candida albicans, CCM8261, Table S4
[11] = Lodderomyces parapsilosis, CCM8260
[12] = Lodderomyces parapsilosis, CCM8260, Table S4
[13] = Pichia kudriavzevii, CCM8271, Table S4

SMILES | MIC ([1]; 37 °C, 11 days) | MIC [1] | MIC (M. smegmatis ATCC 700084) | MIC (M. smegmatis ATCC 700084; Table S3) | MIC ([3]; ATCC25922, 24 h) | MIC ([3]; ATCC25922, Table S4, 24 h) | MIC ([4]; ATCC29213, 24 h) | MIC ([4]; ATCC29213, Table S4, 24 h) | MIC ([5]; ATCC29212, 24 h) | MIC ([5]; ATCC29212, Table S4, 24 h) | MIC ([6]; 24 h) | MIC ([6]; Table S4, 24 h) | MIC (M. marinum CAMP 5644) | MIC (M. marinum CAMP 5644; Table S3) | MIC ([7]; Candida albicans, CCM8261) | MIC [8, 11] | MIC (Candida krusei CCM 8271; Pichia kudriavzevii, CCM8271) | MIC (M. kansasii DSM 44162) | MIC (M. kansasii DSM 44162; Table S3) | also measured
CCOc1ccccc1NC(=O)OCC(O)CN1CCN(c2ccc(F)cc2)CC1 (stereo not shown) [Compound 5h] | 1100 µM | 500 µg/mL | 564 µM | 256 µg/mL | > 564 µM | > 256 µg/mL | > 564 µM | > 256 µg/mL | > 564 µM | > 256 µg/mL | > 564 µM | > 256 µg/mL | 282 µM | 128 µg/mL | > 282 µM | > 282 µM | > 282 µM | 282 µM | 128 µg/mL | pKa [2]: 6.58; MIC [7, 10]: > 128 µg/mL; MIC [8, 12]: > 128 µg/mL; MIC (Candida krusei CCM 8271; [13]): > 128 µg/mL; log Pexp [9]: 3.90
CCOc1cccc(NC(=O)OCC(O)CN2CCN(c3cccc(C(F)(F)F)c3)CC2)c1.Cl (stereo not shown) [Compound 5d, 1-[3-(3-ethoxyphenylcarbamoyl)oxy-2-hydroxypropyl]-4-(3-trifluoromethylphenyl)piperazin-1-ium chloride] | 1980 µM | 1000 µg/mL | 127 µM | 64 µg/mL | > 508 µM | > 256 µg/mL | > 508 µM | > 256 µg/mL | > 508 µM | > 256 µg/mL | > 508 µM | > 256 µg/mL | 127 µM | 64 µg/mL | > 254 µM | > 254 µM | > 254 µM | 31.8 µM | 16 µg/mL | pKa [2]: 5.35; MIC [7, 10]: > 128 µg/mL; MIC [8, 12]: > 128 µg/mL; MIC (Candida krusei CCM 8271; [13]): > 128 µg/mL; log Pexp [9]: 3.72
Nc1nc(=O)[nH]cc1F [Compound 5-FC, 5-flucytosine, reference compound] | – | – | – | – | – | – | – | – | – | – | – | – | – | – | – | – | – | – | – | MIC [7]: 7.69 µM; MIC CA ([7]; Table S4): 1 µg/mL; MIC [8]: 61.50 µM; MIC CP ([8]; Table S4): 8 µg/mL; MIC (Candida krusei CCM 8271): 0.96 µM; MIC CK (Candida krusei CCM 8271; Table S4): 0.125 µg/mL
CO[C@H]1/C=C/O[C@@]2(C)Oc3c(C)c(O)c4c(O)c(c(/C=N/N5CCN(C)CC5)c(O)c4c3C2=O)NC(=O)/C(C)=C\C=C\[C@H](C)[C@H](O)[C@@H](C)[C@@H](O)[C@@H](C)[C@H](OC(C)=O)[C@@H]1C [RIF, rifampicin, reference compound] | 109 µM | 60 µg/mL | 19.4 µM | 0.125 µg/mL | – | – | – | – | – | – | – | – | 2.43 µM | 0.25 µg/mL | – | – | – | 0.15 µM | 0.5 µg/mL | –
C[C@@H]1[C@H](O)[C@@H](C)/C=C/C=C/C=C/C=C/C=C/C=C/C=C/[C@H](O[C@@H]2O[C@H](C)[C@@H](O)[C@H](N)[C@@H]2O)C[C@@H]2O[C@](O)(C[C@@H](O)C[C@@H](O)[C@H](O)CC[C@@H](O)C[C@@H](O)CC(=O)O[C@H]1C)C[C@H](O)[C@H]2C(=O)O [Amph. B, amphotericin B, reference compound] | – | – | – | – | – | – | – | – | – | – | – | – | – | – | 0.54 µM | 1.08 µM | 0.54 µM | – | – | –
NNC(=O)c1ccncc1 [INH, isoniazid, reference compound] | 1820 µM | 250 µg/mL | 117 µM | 16.1 µg/mL | – | – | – | – | – | – | – | – | 467 µM | 64 µg/mL | – | – | – | – | – | –
CC1(C)S[C@@H]2[C@H](NC(=O)[C@H](N)c3ccccc3)C(=O)N2[C@H]1C(=O)O [AMP, ampicillin, reference compound] | – | – | – | – | > 45.8 µM | > 16 µg/mL | 5.72 µM | 2 µg/mL | > 45.8 µM | > 16 µg/mL | > 45.8 µM | > 16 µg/mL | – | – | – | – | – | – | – | –
